Source: paper PMC7845544 (Frontiers in Pharmacology, 2021)
“Also recorded” adds a separate entry of the source.

How the values were obtained:
human granulosa cells = assay: Estradiol production from pooled human granulosa-lutein cells (Boston IVF); format: cell-based; details: for EC50: pooled granulosa-lutein cells from two patients (Figure 4A), read-out: EC50, 17β-estradiol production; for maximal 17β-estradiol response: three patients (Figure 4B)
Protocol: Human granulosa cells were prepared from the spent follicular fluid of women undergoing IVF treatment at Boston IVF Center (Waltham, MA, United States) and at Family Fertility Center (Baylor College of Medicine, Houston, TX, United States) following methods previously established ([Breckwoldt et al., 1996]; [Amsterdam et al., 2003]). Institutional review board approval and informed consent from the patients were obtained before collecting the follicular fluid samples. In brief, red blood cells (RBCs) in the follicular aspirate were lyzed using RBC lysis buffer (Quality Biological Inc., Gaithersburg, MD, United States), and washed extensively with PBS and DMEM/F12 containing 5% FBS, fungizone, and the antibiotics penicillin (100 IU/ml) and streptomycin (100 μg/ml). Subsequently, cells from the aspirate were plated in T75 flasks, cultured for 7 days with fresh media being replaced every other day. At the end of the culture period, cells were released from the flask by trypsin and transferred to 96-well plates (5,000 cells/well, Greiner Bio-One). Following 48 h of culture, media in culture wells was replaced with serum free media containing 0.1% BSA and 10^−7 M androstenedione. Following 24 h of serum starvation, cells were stimulated with fresh media (0.1% BSA, 10^−7 M androstenedione) with FSH or compound for 48 h. Supernatant was collected and stored at −80C for determination of estradiol by ELISA.

hFSHR = target: T1, hFSHR (Homo sapiens, UniProt P23945); assay: cAMP (HTRF) in CHO cells transfected with hFSHR; format: cell-based; details: for EC50: compounds in presence of EC20 ligand (Figure 1 legend); for EC50 / % Response, CHO-hFSHR: mean ± SEM; for % Response, CHO-hFSHR: maximal cAMP vs maximal response of protein ligand FSH
T1 construct: expressed in transfected cells
T1 sequence (P23945 18-695): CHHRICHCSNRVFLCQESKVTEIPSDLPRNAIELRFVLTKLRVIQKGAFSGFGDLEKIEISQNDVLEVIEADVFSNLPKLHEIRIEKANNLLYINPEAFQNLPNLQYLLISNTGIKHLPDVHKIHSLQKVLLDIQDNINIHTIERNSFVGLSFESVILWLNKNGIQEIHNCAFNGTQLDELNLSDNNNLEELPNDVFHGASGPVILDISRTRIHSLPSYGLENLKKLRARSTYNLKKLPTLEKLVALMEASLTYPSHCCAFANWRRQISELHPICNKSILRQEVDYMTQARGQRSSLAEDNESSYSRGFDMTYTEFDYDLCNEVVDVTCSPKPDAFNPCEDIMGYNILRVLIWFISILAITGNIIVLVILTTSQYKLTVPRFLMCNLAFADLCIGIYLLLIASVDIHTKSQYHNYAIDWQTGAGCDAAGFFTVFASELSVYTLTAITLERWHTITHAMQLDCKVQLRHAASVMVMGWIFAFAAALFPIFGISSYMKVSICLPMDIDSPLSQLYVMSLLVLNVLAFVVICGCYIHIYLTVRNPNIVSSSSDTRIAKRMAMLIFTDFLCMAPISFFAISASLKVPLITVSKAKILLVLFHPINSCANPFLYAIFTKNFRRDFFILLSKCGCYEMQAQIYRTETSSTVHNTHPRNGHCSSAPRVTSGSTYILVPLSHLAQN
Protocol: (§1) Chinese hamster ovary (CHO) cells transfected with hFSHR, hLHR or hTSHR were grown as described previously ([Kelton et al., 1992]; [Persani et al., 1993]; [Yu et al., 2014]). In brief, CHO-hFSHR and CHO-hTSHR were maintained in DMEM/F12 + 10% FBS in T150 culture flasks. The cells were cultured until they reached 70–80% confluence (three days) and were then used for assays or passaged. CHO-hLHR ([van de Lagemaat et al., 2009]; [Sriraman et al., 2014]) was cultured in MEM alpha (++) +10% FBS and G418, and passaged every three days. CHO-hFSHR or −hLHR or −hTSR cells (2,500/well) were plated in 5 µL of phenol red free DMEM/F12 + 1% FBS in 384 well solid white low volume plates (Greiner 784075) by Multidrop. […] The plates were incubated at 37°C for 1 h. After the incubation period, cAMP was measured by HTRF® (homogeneous time-resolved fluorescence) assay (CisBio, Bedford, MA). In brief, conditioned media were incubated with cryptate-labeled cAMP antibody and d2-labeled cAMP in lysis buffer for 1 h. Free cAMP produced by cells competes with cAMP-d2 for binding to the anti-cAMP cryptate. An increase in cellular cAMP leads to a decrease in fluorescence resonance energy transfer, which is detectable as a decrease in the emission at 665 nm, measured by Envision fluorescence reader (PerkinElmer, Waltham, MA). The readout was calculated fluorescence ratio (665/620 nm). Values given in percent (%) indicate the percent response at a certain concentration of agonist relative to the maximum response of the protein ligand standard.

[1] = microsomes
[2] = microsomes; remark: listed apart in the source
Mouse pharmacokinetics = format: in vivo; details: 5 mg/kg; for Mouse PK F%: oral bioavailability
[3] = microsomes; remark: listed apart in the source
[4] = microsomes; remark: listed apart in the source
hLH/CGR = target: T2, hLH/CGR (Homo sapiens, UniProt P22888); assay: cAMP (HTRF) in CHO cells transfected with hLH/CGR; format: cell-based; details: for EC50: compounds in presence of EC20 ligand (Figure 1 legend); for EC50 / % Response, CHO-hLH/CGR: mean ± SEM; for % Response, CHO-hLH/CGR: maximal cAMP vs maximal response of hCG
T2 construct: expressed in transfected cells
T2 sequence (P22888 27-699): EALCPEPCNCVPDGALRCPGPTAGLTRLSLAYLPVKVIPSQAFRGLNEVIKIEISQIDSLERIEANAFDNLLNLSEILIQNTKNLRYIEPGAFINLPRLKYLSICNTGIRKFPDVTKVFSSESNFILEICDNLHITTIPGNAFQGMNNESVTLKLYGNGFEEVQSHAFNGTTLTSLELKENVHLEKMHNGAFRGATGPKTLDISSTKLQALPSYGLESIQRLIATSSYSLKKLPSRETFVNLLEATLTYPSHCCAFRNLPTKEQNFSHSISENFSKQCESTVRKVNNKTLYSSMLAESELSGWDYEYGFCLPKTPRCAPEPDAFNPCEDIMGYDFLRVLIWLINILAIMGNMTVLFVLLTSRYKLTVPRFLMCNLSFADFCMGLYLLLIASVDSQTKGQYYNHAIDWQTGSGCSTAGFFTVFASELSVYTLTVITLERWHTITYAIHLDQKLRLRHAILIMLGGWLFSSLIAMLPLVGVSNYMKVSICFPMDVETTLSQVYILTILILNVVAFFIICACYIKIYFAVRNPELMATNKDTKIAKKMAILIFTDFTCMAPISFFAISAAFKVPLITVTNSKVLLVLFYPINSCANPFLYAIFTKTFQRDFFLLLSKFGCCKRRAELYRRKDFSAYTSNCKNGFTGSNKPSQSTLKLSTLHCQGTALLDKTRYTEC
Protocol: as §1

immature SD rats = assay: Superovulation assay in immature rats; format: in vivo, rat; details: for minimal effective dose, cumulus oocyte complexes (COC): with low dose rec-hFSH (0.29 IU)
Protocol: Immature SD rats and B6C3F1 mice (both 18–21 day old females) were purchased from Charles-River laboratories (Wilmington, MA, United States and Shanghai, China). All animals were treated in accordance to Chempartner (Shanghai, China) or Embryotech (Haverhill, MA, United States) IACUC approved animal protocols. The animals were provided water and food ad libitum and housed under 12 h dark and 12 h light schedules.
Immature rats and mice were used to investigate the ability of the small molecules to induce follicular development and support ovulation as described elsewhere ([Steelman and Pohley, 1953]) with modifications ([Sriraman et al., 2014]). […] The isolated COC’s were treated with hyaluronidase and the total number of ovulated oocytes was determined microscopically.
Plasma concentrations of FSHR-AA were measured during superovulation assays, except for experiments where plasma was collected for estradiol measurements.

| SMILES | EC50 (human granulosa cells) | maximal 17β-estradiol response (human granulosa cells; second culture) | EC50 (hFSHR) | % Response, CHO-hFSHR (hFSHR) | Clint, monkey [1] | Clint, dog [2] | Mouse PK AUC (Mouse pharmacokinetics) | Mouse PK Cmax (Mouse pharmacokinetics) | Mouse PK T1/2 (Mouse pharmacokinetics) | Mouse PK F% (Mouse pharmacokinetics) | Clint, human [3] | Clint, rat [4] | EC50 (hLH/CGR) | % Response, CHO-hLH/CGR (hLH/CGR) | minimal effective dose, cumulus oocyte complexes (COC) (immature SD rats; immature rat, oral) | further results |
| --- | --- | --- | --- | --- | --- | --- | --- | --- | --- | --- | --- | --- | --- | --- | --- | --- |
| COc1cc(C(N)=O)cc(-c2cc3c(cc2OC)OCc2c(C(=O)N(C)C(C)(C)C)nn(-c4cc(Cl)cc(Cl)c4)c2-3)n1 [TOP5668] | 15 nM | 200 ng/mL | 2.2 nM | 100.75 ± 0.51% | 117 µl/min/mg protein | 44 µl/min/mg protein | 2,494 ng*h/ml | 312 ng/mL | 3.57 h | 26% | 20 µl/min/mg protein | 7 µl/min/mg protein | 176 nM | 96.64 ± 0.61% | 2.5 mg/kg | fold more potent than TOP5300, 17β-estradiol production (human granulosa cells; pooled cells from two patients (Figure 4A)): 30 fold; fold greater maximal estradiol response than rec-hFSH (human granulosa cells; pooled human granulosa cells, second culture (Figure 4B)): approximately 7 fold; potency shift to the left of TOP5300 (human granulosa cells; second culture, pooled cells from three patients (Figure 4B)): ~100 fold; fold more potent than TOP5300 in hFSHR-AA activity (hFSHR; CHO-hFSHR): 3-4 fold; Ratio of EC50 LHR/FSHR (hLH/CGR; CHO assays): 80; fold more potent than TOP5300, superovulation dose response (immature SD rats; immature rat): approximately 2 fold |
| COc1cc2c(cc1-c1cnn(CCO)c1)-c1c(c(C(=O)N(C)C(C)(C)C)nn1-c1cc(Cl)cc(Cl)c1)CO2 [TOP5300] | 474 nM | 200 ng/mL | 9.72 nM | 98.4 ± 0.31% | 165 µl/min/mg protein | 37 µl/min/mg protein | 5,533 ng*h/ml | 1,133 ng/ml | 2.5 h | 22% | 37 µl/min/mg protein | 11 µl/min/mg protein | 56.7 nM | 95.68 ± 0.37% | 5 mg/kg | number of COCs vs 1.16 IU rec-hFSH (immature SD rats; 50 mg/kg, oral, with 0.29 IU rec-hFSH): not significantly different from 1.16 IU rec-hFSHH; serum estradiol-17β production (immature SD rats; 5, 10 and 25 mg/kg, immature rat): followed the follicular stimulation response; follicular maturation with or without supplemental rec-hFSH (0.29 IU) (immature SD rats; immature rat, oral): full agonist; single daily dose (QD) vs twice daily (BID) administration, follicular maturation (immature SD rats; immature rat, oral gavage, with 0.29 IU FSH): stimulates similar follicular growth; also recorded: equally effective as twice daily administrations |
